What was measured:
[1] = DPPH free radical scavenging assay
Method: DPPH is 1,1-diphenyl-2-picrylhydrazyl and can be used in antioxidant experiments.
Samples at corresponding concentrations (50, 100, 200, 400, 800 mg/L) were mixed with […] DPPH and absolute ethanol at a 1:1 volume ratio, respectively. DPPH and absolute ethanol were mixed at a 1:1 volume ratio, reacted at room temperature in the dark for 30 min, and the absorbance was measured at 517 nm. The absorbance of the sample mixed with DPPH is denoted as A1, the absorbance of the sample mixed with absolute ethanol is denoted as A2, and the absorbance of DPPH mixed with absolute ethanol is denoted as A3. The DPPH scavenging rate of the sample is calculated as [1−(A1−A2)/A3]×100%.

[2] = Cell migration (scratch) assay, skin barrier repair; format: cell-based; details: sample 100 mg/L
Method: Principle: When cells grow to form a confluent monolayer, a scratch tool is used to create a cell-free blank area on the confluent monolayer cells, the cells in the blank area are removed by a mechanical force, and through a period of incubation, the migration of the cells to the cell-free area is observed, and the migration ability of the cells is reflected by measuring the migration distance of the cells.
• 1. Marking the culture plate. Use a marker pen and ruler to draw evenly spaced horizontal lines (approximately 0.5-1 cm apart) on the back of a 6-well plate, ensuring at least 5 lines cross each well. Avoid thick lines. • 2. Cell seeding. Seed approximately 5×10^5 cells per well (the number varies for varied cells, adjusting based on cell growth rate), and the principle of inoculation is to achieve 100% confluence overnight. • 3. Cell scratching. On the following day, use a pipette tip perpendicular to the cell layer to create scratches along the pre-marked lines on the back of the plate (It is best to use the same tip for all wells). • 4. Cell washing. After the scratching was completed, rinse the cells three times with sterile PBS to remove dislodged cells, leaving a clear visible scratch gap, and then replace with fresh serum-free medium. • 5. Cell culturing and observation. […]

Question: What does the source list for `CCCCCCCC/C=C\CCCCCCCC(=O)N[C@@H](CO)[C@H](O)[C@H](O)CCCCCCCCCCCCCC` [ceramide 3B, oleic acid ceramide]?
Answer: DPPH free radical scavenging rate ([1]; 50 mg/L): 7.76%; DPPH free radical scavenging rate ([1]; 100 mg/L): 12.82%; DPPH free radical scavenging rate ([1]; 200 mg/L): 24.10%; DPPH free radical scavenging rate ([1]; 400 mg/L): 29.60%; DPPH free radical scavenging rate ([1]; 800 mg/L): 33.16%; healing rate after 24 h [2]: 59.32%
